The results in this text go back to patent publication US20230143612A1 (Arbutus Biopharma Corporation, priority 2020, published 2023).

Chain of PD-L1 His protein / PD-1 Fc protein (Q9NZQ7 19-238 limits assumed): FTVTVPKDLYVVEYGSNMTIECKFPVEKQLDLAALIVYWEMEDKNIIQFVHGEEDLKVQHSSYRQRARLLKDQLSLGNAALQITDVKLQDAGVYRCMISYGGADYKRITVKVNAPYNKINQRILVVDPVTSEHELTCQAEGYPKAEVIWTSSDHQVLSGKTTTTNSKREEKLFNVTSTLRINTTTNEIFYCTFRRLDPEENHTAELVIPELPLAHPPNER

The assay deals with PD-L1 His protein / PD-1 Fc protein (Homo sapiens, UniProt Q9NZQ7). The assay can be described thus: HTRF Assay (PD-1/PD-L1 interaction). The format is binding. As to conditions: PD-L1 His 6 nM, PD-1 Fc 6 nM. A digest of the protocol:
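Compounds tested from 20 μM down to 0.001 μM (3-fold) against 6 nM PD-L1 His and 6 nM PD-1 Fc, 15 min room temperature incubation. Detection after 1 h at room temperature with Tb cryptate anti-6HIS and XL665 anti-human IgG reagents (mixture at 0.35 nM and 6.7 nM), HTRF signal.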
In general terms: Time-resolved FRET reads energy transfer from a long-lived donor to a nearby acceptor.
For the compound `COc1nc(-c2cccc(-c3cccc(-c4ccn5c(=O)c(CNC[C@@H]6CCC(=O)N6)cnc5c4)c3C)c2C(F)(F)F)ccc1CNC[C@@H]1CCC(=O)N1` [Example 96, 8-(3′-(6-Methoxy-5-(((((S)-5-oxopyrrolidin-2-yl)methyl)amino)methyl)pyridin-2-yl)-2-methyl-2′-(trifluoromethyl)-[1,1′-biphenyl]-3-yl)-3-(((((S)-5-oxopyrrolidin-2-yl)methyl)amino)methyl)-4H-pyrido[1,2-a]pyrimidin-4-one], 68 nM corresponded to half-maximal inhibition (IC50). `COc1nc(/C=C2\CCc3c2cccc3-c2cccc(-c3ccn4c(=O)c(CNC[C@@H]5CCC(=O)N5)cnc4c3)c2Cl)c(Cl)cc1CNC[C@@H]1CCC(=O)N1` [Example 177, 8-(2-Chloro-3-((E)-1-((3-chloro-6-methoxy-5-(((((S)-5-oxopyrrolidin-2-yl)methyl)amino)methyl)pyridin-2-yl)methylene)-2,3-dihydro-1H-inden-4-yl)phenyl)-3-(((((S)-5-oxopyrrolidin-2-yl)methyl)amino)methyl)-4H-pyrido[1,2-a]pyrimidin-4-one]: the 50% inhibitory concentration (IC50) (as a rule, the concentration at which inhibition is half-maximal) was 5 nM. With `COc1nc(-c2cccc(-c3cccc(-c4ccc5c(CNC[C@@H]6CCCO6)cn(C)c5n4)c3Cl)c2Cl)ccc1CNC[C@@H]1CCC(=O)N1` [Example 444, (5S)-5-[[[6-[2-Chloro-3-[2-chloro-3-[1-methyl-3-[[[(2S)-tetrahydrofuran-2-yl]methylamino]methyl]pyrrolo[2,3-b]pyridin-6-yl]phenyl]phenyl]-2-methoxy-3-pyridyl]methylamino]methyl]pyrrolidin-2-one], the IC50 came to 920 nM. In turn, `COc1cc(-c2cccc(-c3cccc(-c4ccn5c(=O)c(CNC[C@@H]6CCC(=O)N6)cnc5c4)c3C)c2Cl)ccc1CNC[C@@H]1CCC(=O)N1` [Example 66, 8-(2′-Chloro-3″-methoxy-2-methyl-4″-(((((S)-5-oxopyrrolidin-2-yl)methyl)amino)methyl)-[1,1′:3′,1″-terphenyl]-3-yl)-3-(((((S)-5-oxopyrrolidin-2-yl)methyl)amino)methyl)-4H-pyrido[1,2-a]pyrimidin-4-one] showed an IC50 of 5.2 nM. As for `COc1nc(-c2cccc(-c3cccc(-c4ccn5c(=O)c(CNCCc6c[nH]cn6)cnc5c4)c3Cl)c2Cl)ccc1CNC[C@@H]1CCC(=O)N1` [Example 215, 8-[2-chloro-3-[2-chloro-3-[6-methoxy-5-[[[(2S)-5-oxopyrrolidin-2-yl]methylamino]methyl]-2-pyridyl]phenyl]phenyl]-3-[[2-(1H-imidazol-4-yl)ethylamino]methyl]pyrido[1,2-a]pyrimidin-4-one], the midpoint of inhibition, the IC50, lay at 8 nM.

Turning to `COc1nc(-c2cccc(-c3cccc(-c4ccn5c(=O)c(CN(C)CCN)cnc5c4)c3Cl)c2Cl)ccc1CNC[C@@H]1CCC(=O)N1` [Example 279, (S)-3-(((2-aminoethyl)(methyl)amino)methyl)-8-(2,2′-dichloro-3′-(6-methoxy-5-((((5-oxopyrrolidin-2-yl)methyl)amino)methyl)pyridin-2-yl)-[1,1′-biphenyl]-3-yl)-4H-pyrido[1,2-a]pyrimidin-4-one], the concentration for half-maximal inhibition (IC50) was found to be 0.1 nM. To `COc1nc(-c2cccc(-c3cccc(-c4ccn5c(=O)c(CNC[C@@H]6CCC(=O)N6)cnc5c4)c3Cl)c2Cl)cc(Cl)c1CNC[C@@H]1CCC(=O)N1` [Example 335, 8-[2-Chloro-3-[2-chloro-3-[4-chloro-6-methoxy-5-[[[(2S)-5-oxopyrrolidin-2-yl]methylamino]methyl]-2-pyridyl]phenyl]phenyl]-3-[[[(2S)-5-oxopyrrolidin-2-yl]methylamino]methyl]pyrido[1,2-a]pyrimidin-4-one] belongs 2.1 nM. Turning to `COc1nc(-c2cccc(-c3cccc(-c4ccn5c(=O)cc(CNC[C@@H]6CCC(=O)N6)nc5c4)c3Cl)c2Cl)ccc1CNC[C@@H]1CCC(=O)N1` [Example 156, 8-(2,2′-Dichloro-3′-(6-methoxy-5-(((((S)-5-oxopyrrolidin-2-yl)methyl)amino)methyl)pyridin-2-yl)-[1,1′-biphenyl]-3-yl)-2-(((((S)-5-oxopyrrolidin-2-yl)methyl)amino)methyl)-4H-pyrido[1,2-a]pyrimidin-4-one], the midpoint of inhibition, the IC50, lay at 1.4 nM. `COc1nc(-c2cccc(-c3cccc(-c4cn5cc(CNCCO)ccc5n4)c3Cl)c2Cl)ccc1CNCCO` [Example 100, 2-(((2-(2,2′-Dichloro-3′-(5-(((2-hydroxyethyl)amino)methyl)-6-methoxypyridin-2-yl)-[1,1′-biphenyl]-3-yl)imidazo[1,2-a]pyridin-6-yl)methyl)amino)ethan-1-ol] registered an IC50 of 4.3 nM. In the case of `Cc1c(-c2ccn3c(=O)c(CNC[C@@H]4CCC(=O)N4)cnc3c2)cccc1-c1cccc(-c2ccc(CNC[C@@H]3CCC(=O)N3)c(F)n2)c1Cl` [Example 57, 8-(2′-Chloro-3′-(6-fluoro-5-(((((S)-5-oxopyrrolidin-2-yl)methyl)amino)methyl)pyridin-2-yl)-2-methyl-[1,1′-biphenyl]-3-yl)-3-(((((S)-5-oxopyrrolidin-2-yl)methyl)amino)methyl)-4H-pyrido[1,2-a]pyrimidin-4-one] it was 3.1 nM; in that of `COc1nc(-c2cccc(-c3cccc(-c4cc5c(cn4)c(CNC[C@@H]4CCC(=O)N4)cn5C)c3Cl)c2Cl)ccc1CNC[C@@H]1CCC(=O)N1` [Example 402, (S)-5-((((6-(2,2′-Dichloro-3′-(1-methyl-3-(((((S)-5-oxopyrrolidin-2-yl)methyl)amino)methyl)-1H-pyrrolo[3,2-c]pyridin-6-yl)-[1,1′-biphenyl]-3-yl)-2-methoxypyridin-3-yl)methyl)amino)methyl)pyrrolidin-2-one], 50 nM; in that of `COc1nc(-c2cccc(-c3cccc(-c4cnc5cc(CNC[C@@H]6CCC(=O)N6)oc5c4)c3Cl)c2Cl)ccc1CNC[C@@H]1CCC(=O)N1` [Example 311, (S)-5-((((6-(2,2′-Dichloro-3′-(2-(((((S)-5-oxopyrrolidin-2-yl)methyl)amino)methyl)furo[3,2-b]pyridin-6-yl)-[1,1′-biphenyl]-3-yl)-2-methoxypyridin-3-yl)methyl)amino)methyl)pyrrolidin-2-one], 5 nM. Regarding `O=C1CC[C@@H](CNCc2ccc(-c3cccc(-c4cccc(-c5ccn6c(=O)c(CNC[C@@H]7CCC(=O)N7)cnc6c5)c4Cl)c3Cl)cc2OC(F)(F)F)N1` [Example 87, 8-(2,2′-dichloro-4″-(((((S)-5-oxopyrrolidin-2-yl)methyl)amino)methyl)-3″-(trifluoromethoxy)-[1,1′:3′,1″-terphenyl]-3-yl)-3-(((((S)-5-oxopyrrolidin-2-yl)methyl)amino)methyl)-4H-pyrido[1,2-a]pyrimidin-4-one], the IC50 was 2.6 nM. To `Cc1c(-c2ccn3c(=O)c(CNC[C@@H]4CCC(=O)N4)cnc3c2)cccc1-c1cccc(-c2ccc(CNC[C@@H]3CCC(=O)N3)c(C(F)(F)F)n2)c1Cl` [Example 78, 8-(2′-Chloro-2-methyl-3′-(5-(((((S)-5-oxopyrrolidin-2-yl)methyl)amino)methyl)-6-(trifluoromethyl)pyridin-2-yl)-[1,1′-biphenyl]-3-yl)-3-(((((S)-5-oxopyrrolidin-2-yl)methyl)amino)methyl)-4H-pyrido[1,2-a]pyrimidin-4-one] belongs 16 nM; to `COc1nc(-c2cccc(-c3cccc(-c4ccc5c(n4)nc(CNC[C@@H]4CCC(=O)N4)n5C)c3Cl)c2Cl)ccc1CNC[C@@H]1CCC(=O)N1` [Example 312, (S)-5-((((6-(2,2′-Dichloro-3′-(1-methyl-2-(((((S)-5-oxopyrrolidin-2-yl)methyl)amino)methyl)-1H-imidazo[4,5-b]pyridin-5-yl)-[1,1′-biphenyl]-3-yl)-2-methoxypyridin-3-yl)methyl)amino)methyl)pyrrolidin-2-one], 0.1 nM; to `COc1nc(-c2cccc(-c3cccc(-c4ccn5c(=O)c(CN6CC(C(=O)O)C6)cnc5c4)c3Cl)c2Cl)cnc1CNC[C@@H]1CCC(=O)N1` [Example 117, (S)-1-((8-(2,2′-Dichloro-3′-(6-methoxy-5-((((5-oxopyrrolidin-2-yl)methyl)amino)methyl)pyrazin-2-yl)-[1,1′-biphenyl]-3-yl)-4-oxo-4H-pyrido[1,2-a]pyrimidin-3-yl)methyl)azetidine-3-carboxylic acid], 0.4 nM. As to `O=C1CC[C@@H](CNCc2ccc3nc(-c4cccc(-c5cccc(-c6cc(=O)n7cc(CNC[C@@H]8CCC(=O)N8)ccc7n6)c5Cl)c4Cl)cc(=O)n3c2)N1` [Example 60, 2,2′-(2,2′-Dichloro-[1,1′-biphenyl]-3,3′-diyl)bis(7-(((((S)-5-oxopyrrolidin-2-yl)methyl)amino)methyl)-4H-pyrido[1,2-a]pyrimidin-4-one)], the IC50 worked out at 460 nM. Compound `COc1nc(-c2cccc(-c3cccc(-c4ccn5c(=O)c(CNCCCC(F)(F)C(F)(F)F)cnc5c4)c3Cl)c2Cl)ccc1CNC[C@@H]1CCC(=O)N1` [Example 223, (S)-8-(2,2′-dichloro-3′-(6-methoxy-5-((((5-oxopyrrolidin-2-yl)-methyl)-amino)methyl)-pyridin-2-yl)-[1,1′-biphenyl]-3-yl)-3-(((4,4,5,5,5-pentafluoropentyl)amino)-methyl)-4H-pyrido[1,2-a]pyrimidin-4-one] yielded an IC50 of 10 nM.

On to `COc1nc(-c2cccc(-c3cccc(-c4ccn5c(=O)c(CNC[C@@H]6CCC(=O)N6)cnc5c4)c3Cl)c2Cl)cnc1CNC[C@@H]1CCC(=O)N1` [Example 47, 8-(2,2′-Dichloro-3′-(6-methoxy-5-(((((S)-5-oxopyrrolidin-2-yl)methyl)amino)methyl)pyrazin-2-yl)-[1,1′-biphenyl]-3-yl)-3-(((((S)-5-oxopyrrolidin-2-yl)methyl)amino)methyl)-4H-pyrido[1,2-a]pyrimidin-4-one], for which the 50% inhibitory concentration (IC50) worked out at 1.4 nM.

Consider `COc1cc(-c2cccc(-c3cccc(-c4ccc(CNC[C@@H]5CCC(=O)N5)c(OC)n4)c3Cl)c2Cl)cc2c1CN(C[C@H](C)O)CC2` [Example 418, (S)-5-((((6-(2,2′-Dichloro-3′-(2-((S)-2-hydroxypropyl)-8-methoxy-1,2,3,4 tetrahydroisoquinolin-6-yl)-[1,1′-biphenyl]-3-yl)-2-methoxypyridin-3-yl)methyl)amino)methyl)pyrrolidin-2-one], for which the IC50 amounted to 23 nM.
